Experimental data from ChEMBL document CHEMBL1139253, “Effect of methyl substitution in a ligand on the selectivity and binding affinity for a nucleobase: a case study with isoxanthopterin and its derivatives” (Bioorg Med Chem, 2009).

Tests used:
[1] = Binding affinity to target base G of 5'-TCC AGX GCA AC-3'/3'_AGG TCG CGT TG-5' 11 mer duplex DNA containing abasic site assessed as melting temperature at 150 uM by spectrophotometric analysis
[2] = Binding affinity to target base T of 5'-TCC AGX GCA AC-3'/3'_AGG TCT CGT TG-5' 11 mer duplex DNA containing abasic site assessed as melting temperature at 150 uM by spectrophotometric analysis
[3] = Binding affinity to target base A of 5'-TCC AGX GCA AC-3'/3'_AGG TCA CGT TG-5' 11 mer duplex DNA containing abasic site assessed as melting temperature at 150 uM by spectrophotometric analysis relative to control
[4] = Binding affinity to target base A of 5'-TCC AGX GCA AC-3'/3'_AGG TCA CGT TG-5' 11 mer duplex DNA containing abasic site assessed as melting temperature at 150 uM by spectrophotometric analysis
[5] = Binding affinity to target base T of 5'-TCC AGX GCA AC-3'/3'_AGG TCT CGT TG-5' 11 mer duplex DNA containing abasic site at 10 uM by fluorescence quenching measurement
[6] = Binding affinity to target base C of 5'-TCC AGX GCA AC-3'/3'_AGG TCC CGT TG-5' 11 mer duplex DNA containing abasic site assessed as melting temperature at 150 uM by spectrophotometric analysis
[7] = Binding affinity to target base T of 5'-TCC AGX GCA AC-3'/3'_AGG TCT CGT TG-5' 11 mer duplex DNA containing abasic site assessed as melting temperature at 150 uM by spectrophotometric analysis relative to control
[8] = Binding affinity to target base C of 5'-TCC AGX GCA AC-3'/3'_AGG TCC CGT TG-5' 11 mer duplex DNA containing abasic site assessed as melting temperature at 150 uM by spectrophotometric analysis relative to control
[9] = Binding affinity to target base G of 5'-TCC AGX GCA AC-3'/3'_AGG TCG CGT TG-5' 11 mer duplex DNA containing abasic site assessed as melting temperature at 150 uM by spectrophotometric analysis relative to control
[10] = Binding affinity to target base C of 5'-TCC AGX GCA AC-3'/3'_AGG TCC CGT TG-5' 11 mer duplex DNA containing abasic site at 10 uM by fluorescence quenching measurement

Row | Compound | Tm [1] [°C] | Tm [2] [°C] | ΔTm [3] [°C] | Tm [4] [°C] | Activity [5] [%] | Tm [6] [°C] | ΔTm [7] [°C] | ΔTm [8] [°C] | ΔTm [9] [°C] | Activity [10] [%]
1 | Cn1c(N)nc2[nH]c(=O)cnc2c1=O | 34.9 | 33.9 | 1.8 | 35.6 | 72.9 | 29.6 | 6 | 0.4 | 0.9 | 
2 | Nc1nc2[nH]c(=O)cnc2c(=O)[nH]1 | 33.6 | 32.7 | 2.2 | 36 | 51.7 | 33.7 | 4.8 | 4.5 | -0.4 | 43.5
3 | Cn1c(=O)cnc2c(=O)[nH]c(N)nc21 | 34.9 | 29.7 | 0.2 | 34 |  | 35.1 | 1.8 | 5.9 | 0.9 | 72
